ChEMBL document CHEMBL4043102, “Novel 4-acetamide-2-alkylthio-N-acetanilides resembling nimesulide: Synthesis, cell viability evaluation and in silico studies” (Bioorg Med Chem, 2017)
Active and inactive are the calls of the source. The calls are words filed in the database; no cut-off is given here.

Key:
[1] = Antiproliferative activity against NHDF assessed as cell proliferation at 30 uM after 48 hrs by MTT assay relative to control; type: cell-based; details: human, NHDF cells; read-out: Activity
LNCaP [2] = experiment: Antiproliferative activity against human LNCAP cells assessed as cell proliferation at 30 uM after 48 hrs by MTT assay relative to control; type: functional; details: read-out: Activity
MCF7 [3] = experiment: Antiproliferative activity against human MCF7 cells assessed as cell proliferation at 30 uM after 48 hrs by MTT assay relative to control; type: functional; details: MCF7, 48 h, read-out: Activity
MCF7 [4] = experiment: Antiproliferative activity against human MCF7 cells after 48 hrs by MTT assay; type: functional, cell-based; details: MCF7, 48 h
LNCaP [5] = experiment: Antiproliferative activity against human LNCAP cells after 48 hrs by MTT assay; type: functional, cell-based
MCF7 [6] = experiment: Induction of apoptosis in human MCF7 cells assessed as reduction in viable cells at 30 uM after 24 hrs by propidium iodide staining based FACS analysis; type: functional, cell-based
MCF7 [7] = experiment: Induction of morphological changes in human MCF7 cells assessed as cell rounding at 30 uM after 24 hrs by propidium iodide staining-based microscopic analysis; type: functional
MCF7 [8] = experiment: Induction of apoptosis in human MCF7 cells assessed as reduction in viable cells at 30 uM after 24 hrs by propidium iodide staining-based microscopic analysis; type: functional, cell-based
[9] = Antiproliferative activity against NHDF assessed as cell proliferation at 1 mM after 48 hrs by MTT assay relative to control; details: human, NHDF cells
LNCaP [10] = experiment: Antiproliferative activity against human LNCAP cells assessed as cell proliferation at 1 mM after 48 hrs by MTT assay relative to control; details: read-out: Activity
MCF7 [11] = experiment: Antiproliferative activity against human MCF7 cells assessed as cell proliferation at 1 mM after 48 hrs by MTT assay relative to control; details: MCF7, 48 h, read-out: Activity

SMILES	viability at 48 h, 30 µM [1] [%]	growth at 30 µM (LNCaP [2]) [%]	growth at 30 µM (MCF7 [3]) [%]	IC50 (MCF7 [4]) [µM]	also measured
CCCCCCSc1cc(NC(C)=O)ccc1N(CC1CCCCC1)C(C)=O	82.8	49.8	24.2	21	
CCCOc1ccccc1N(CC)C(C)=O			92.5		
CCCSc1ccccc1N(CC)C(C)=O			89.1		
CCCCCCOc1ccccc1N(CC)C(C)=O			55.5		
CCCCCCSc1cc(NC(C)=O)ccc1N(Cc1ccc(C)cc1C)C(C)=O	80.1	19.1	6.86	21.6	IC50 (LNCaP [5]): 13.9 µM; Activity (MCF7 [6]): Active; Activity (MCF7 [7]): Active
CC(=O)N(Cc1ccccc1C)c1ccccc1SCc1ccccc1C			13.7		
CC(=O)Nc1ccc(N(CC2CCCCC2)C(C)=O)c(SCc2ccc(C)cc2C)c1	79.7	23	9.08	20.8	IC50 (LNCaP [5]): 9.71 µM
CCCCCCN(C(C)=O)c1ccc(NC(C)=O)cc1SCc1ccc(C)cc1C	83	88.5	11.1	20.7	
CCN(C(C)=O)c1ccccc1OCc1ccccc1			88.8		
CS(=O)(=O)Nc1ccc([N+](=O)[O-])cc1Oc1ccccc1 [NIMESULIDE]	89.3	73.8	42.5	> 100	IC50 (LNCaP [5]): 26.7 µM; Activity (MCF7 [6]): Active; Activity (MCF7 [8]): Active
CCCCCCSc1cc(NC(C)=O)ccc1N(CCCCCC)C(C)=O	93.6	73.9	36.6	24.9	
CCCCCCSc1ccccc1N(CC)C(C)=O			67.7		
CCN(CC)c1ccccc1SC			97.2		
CCSc1ccccc1N(CC)C(C)=O			99.5		
CCCCCCN(C(C)=O)c1ccccc1OCCC			51.5		
O=c1[nH]cc(F)c(=O)[nH]1 [FLUOROURACIL]	86.8	58.8	28.3	3.18	IC50 (LNCaP [5]): 5.21 µM; Activity (MCF7 [6]): Active; Activity (MCF7 [8]): Active

SMILES	viability at 48 h, 30 µM [1] [%]	growth at 30 µM (LNCaP [2]) [%]	growth at 30 µM (MCF7 [3]) [%]	IC50 (MCF7 [4]) [µM]	also measured
CCSc1ccccc1N(Cc1ccccc1C)C(C)=O			77		
CCOc1ccccc1N(Cc1ccccc1)C(C)=O			87.6		
CCCN(C(C)=O)c1ccccc1SC			95.3		
CC(=O)N(Cc1ccccc1)c1ccccc1SCc1ccccc1			79.8		
CC(=O)Nc1ccc(N(Cc2ccc(C)cc2C)C(C)=O)c(SCc2ccc(C)cc2C)c1	89.9	48	15.3	7.33	
CCOc1ccccc1N(CC)C(C)=O			93.5		
CC(=O)Nc1ccc(N(Cc2ccc(C)cc2C)C(C)=O)c(SCC2CCCCC2)c1	80.5	40.4	13.6	25.2	
CC(=O)Nc1ccc(N(CC2CCCCC2)C(C)=O)c(SCC2CCCCC2)c1	86.2	29.7	7.52	16.6	IC50 (LNCaP [5]): 9.16 µM; Activity (MCF7 [6]): Active; Activity (MCF7 [7]): Active
OO [HYDROGEN PEROXIDE]					viability at 48 h, 1000 µM [9]: 15.5%; growth at 1000 µM (LNCaP [10]): 2.15%; growth at 1000 µM (MCF7 [11]): 4.44%
CCN(C(C)=O)c1ccccc1SCc1ccccc1			95.3		
CCSc1ccccc1N(Cc1ccccc1)C(C)=O			89.4		
CCCCCCN(C(C)=O)c1ccc(NC(C)=O)cc1SCC1CCCCC1	98.2	117	35.9	20.4	
CCSc1ccccc1N(CC)CC			99.7		
CCCCCCN(C(C)=O)c1ccccc1SCCC			47.6		
CCCCCCSc1cc([N+](=O)[O-])ccc1N(CCCCCC)C(C)=O	111	92.3	65.9		
